Two compounds from patent US20220362312A1, “CANNABIDIOL-ENHANCED PROBIOTIC COMPOSITIONS AND USES THEREOF FOR TREATMENT OF INFECTIONS” (BUZZELET DEVELOPMENT AND TECHNOLOGIES LTD., priority 2019, published 2022) can be followed below.

One assay deals with Candida albicans. Briefly: Candida albicans biofilm formation with cannabidiol and/or lactobacillus Casei, crystal violet staining. As to conditions: as compared to Candida albicans alone (row 4); incubation 24 hours. In kind it is cell-based. How it is done:
A study is performed to evaluate the efficacy of a composition comprising cannabidiol and lactobacillus Casei in treating or preventing an infection by pathogenic microorganisms comprising Candida albicans, via preventing biofilm formation.
RPMI medium supplemented with 1% glucose is introduced into each well of a 24-well plate.
Candida albicans contacted with cannabidiol are added to each well of row 1.
Candida albicans contacted with lactobacillus Casei are added to each well of row 2.
Candida albicans contacted with cannabidiol and lactobacillus Casei are added to each well of row 3.
Candida albicans alone are added to each well of row 4.
After incubation for 24 hours, spent medium and free-floating fungi are removed by gentle aspiration and the wells washed twice with phosphate-buffered saline (PBS, pH 7.4).
The presence of biofilm is quantified by crystal violet staining as described above for Example 3.

Another assay relates to Escherichia coli. The assay can be described thus: Disc-diffusion agar method, antibacterial effect. The following applies: for growth inhibition: 48 hours at 30° C.; for effect on growth: at the concentrations tested (0.5 μg and 2 μg).
A further assay deals with Bacillus Thuringiensis. Briefly: Disc-diffusion agar method, antibacterial effect. As to conditions: for area of inhibited bacterial growth / growth inhibition: 48 hours at 30° C.; for effect on growth: at the concentrations tested (0.5 μg and 2 μg). On the technique in general: A growth-free zone around the sample is the usual read-out of agar diffusion tests.
For another assay, the system named is Staphylococcus Aureus. Briefly: Disc-diffusion agar method, antibacterial effect. The following applies: for growth inhibition: 48 hours at 30° C.; for effect on growth: at the concentrations tested (0.5 μg and 2 μg).
A further assay has as its system Lactobacillus casei. The assay can be described thus: Disc-diffusion agar method, antibacterial effect. The following applies: for growth inhibition: Lactobacillus casei, 48 hours at 30° C.; for effect on growth: lactobacillus Casei, at the concentrations tested (0.5 μg and 2 μg).

Bounds are passed on as bounds.

Regarding `C=C(C)[C@@H]1CCC(C)=C[C@H]1c1c(O)cc(CCCCC)cc1O` [CBD, cannabidiol], the biofilm formation entry in the assay on Candida albicans is recorded as “significantly inhibited”. Also, the growth inhibition result in the assay with Escherichia coli (0.5 μg on disc) was “−”; in the assay with Escherichia coli (2 μg on disc), “−”; in the assay on Bacillus Thuringiensis (0.5 μg on disc), “+”; with Bacillus Thuringiensis (2 μg on disc), “+”; in the assay with Staphylococcus Aureus (0.5 μg on disc), “−”; in the assay with Staphylococcus Aureus (2 μg on disc), “−”. Further, the growth inhibition entry with Lactobacillus casei (0.5 μg on disc) and in the assay on Lactobacillus casei (2 μg on disc) was “−” each time. Further, the “effect on growth” value is reported as “no effect” in the assay on Escherichia coli, “inhibit growth” in the assay with Bacillus Thuringiensis, “no effect” in the assay on Staphylococcus Aureus and “no effect” with Lactobacillus casei. In addition, the “area of inhibited bacterial growth” value worked out at 2 mm in the assay on Bacillus Thuringiensis (0.5 μg on disc) and 3 mm in the assay with Bacillus Thuringiensis (2 μg on disc).

As to `CCCCCc1cc(O)c2c(c1)OC(C)(C)[C@@H]1CCC(C)=C[C@@H]21` [THC, tetrahydrocannabiniol], the growth inhibition entry in the assay with Escherichia coli (0.5 μg on disc) was “−”; in the assay with Escherichia coli (2 μg on disc), “−”; in the assay on Bacillus Thuringiensis (0.5 μg on disc) it was “+”; in the assay on Bacillus Thuringiensis (2 μg on disc) it was “+”; in the assay with Staphylococcus Aureus (0.5 μg on disc), “−”; with Staphylococcus Aureus (2 μg on disc), “−”. Also, the growth inhibition entry in the assay on Lactobacillus casei (0.5 μg on disc) and with Lactobacillus casei (2 μg on disc) was “−” in each case. For the same compound, the “effect on growth” value is “no effect” in the assay on Escherichia coli, “inhibit growth” with Bacillus Thuringiensis, “no effect” with Staphylococcus Aureus and “no effect” in the assay on Lactobacillus casei. Moreover, the “area of inhibited bacterial growth” value is 1 mm in the assay on Bacillus Thuringiensis (0.5 μg on disc) and less than 1 mm in the assay with Bacillus Thuringiensis (2 μg on disc).
